Results published in patent publication US20110112114A1, “INHIBITORS OF SERINE PROTEASES, PARTICULARLY HEPATITIS C VIRUS NS3 PROTEASE” (priority 1999, published 2011).
pKi: −log10 of the molar value.

Biological target: HCV NS3 serine protease (Hepatitis C virus genotype 1a, UniProt P27958)
Experiment: biochemical
Settings: Ki from rate vs. [inhibitor] plots, Morrison tight binding competitive inhibition fit; with or without NS4A; 30 C, pH 7.8
Method: Peptides EDVVabuCSMSY (Abu designates—aminobutyric acid), […], […] and EDVV AbuC-p-nitroanilide was purchased from AnaSpec Inc. (San Jose, Calif.).
Cleavage reactions were quenched by the addition of an equal volume of a mixture of 10% TFA: acetonitrile (1:1) and activity was assessed on a reversed phase HPLC column (Rainin C18 Microsorb-MV, […], 4.6×250 mm; 0-50% acetonitrile, 0.1% TFA@3.33% min) using a Hewlett Packard 1050 instrument with auto-injection and diode array detection at 210 nm and 280 nm (where appropriate). Peptide elution fragments were collected and identified by mass spectrometry and N-terminal sequence analysis. Fragment identity and concentration was further verified by authentic, synthesized products. Initial rates of cleavage were determined at <20% substrate conversion and catalytic parameters were determined assuming Michaelis-Menten kinetics using the MultiFit program (Day Computing, Cambridge, Mass.).
Spectrophotometric assays were run in a 96-well microtiter plate at 30 C, using a SpectraMax 250 reader (Molecular Devices, Sunnyvale, Calif.) with kinetic capability. Cleavage of EDVV AbuC-p-nitroanilide (5A-pNA) substrate was performed with or without NS4A in the same buffer used for HPLC assays at 30 C, and pNA release was monitored at 405 nm. The extinction coefficient of p-nitroaniline is independent of pH at values of 5.5. and above [Tuppy, H., et al., Hoppe-Seyler's Z. Physiol. Chem., 329, pp. 278-288 (1962)]; Raybuck and Luong, unpublished observations).
Kinetic constants for the rapid equilibrium ordered bisubstrate reaction were determined from rate vs. [4A], [EDVV Abuc-pNa]data by non-linear least squares fitting to equation 1 [Morrison, J. F. Biochim. Biophys. Acta., 185, pp. 269-286 (1969)] as described in the text. Kii and Kis valkues for peptidyl inhibitors were determined from rate vs. [inhibitor], [substrate] data and fitting to the equation for mixed inhibition:
rate=Vmax[S]/{Km(1+[I]/Kis0+[S](1+[I]/Kii)}
The commercial program KinetAsyst (State College, Pa.) was used for both procedures. Ki values were calculated from rate vs. [inhibitor] plots by a nonlinear least squares fit of the data to the equation of Morrison for tight binding competitive inhibition [Morrison, J. F. Biochim. Biophys. Acta., 185, pp. 269-286 (1969)]. The KineTic program (BioKin Ltd) was used for this procedure.
Ki values are express in μM. Category “A” indicates <1 μM inhibition; category “B” indicates 1-100 μM inhibition; category “C” indicates >100 μM.

Sequence of HCV NS3 serine protease (P27958 1027-1208): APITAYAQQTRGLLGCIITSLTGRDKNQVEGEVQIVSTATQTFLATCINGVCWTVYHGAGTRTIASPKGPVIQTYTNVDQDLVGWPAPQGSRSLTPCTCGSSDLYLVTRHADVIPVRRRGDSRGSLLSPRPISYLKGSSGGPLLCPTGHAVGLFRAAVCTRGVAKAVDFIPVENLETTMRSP

Row | pKi | SMILES
1 | 4.00 to 6.00 | CCC(C=O)NC(=O)c1cc(OCc2ccccc2)ccc1NC(=O)C(NC(=O)C(NC(=O)c1cnccn1)C(C)C)C(C)C (stereo not shown) [Compound 101]
2 | 4.00 to 6.00 | CCC(C=O)NC(=O)c1cc(OCc2ccccc2)ccc1N(C)C(=O)C(NC(=O)C(NC(=O)c1cnccn1)C(C)C)C(C)C (stereo not shown) [Compound 103]
3 | 4.00 to 6.00 | CCC(C=O)NC(=O)c1cc(OCc2ccccc2)ccc1NC(=O)C(NC(=O)c1c(O)ccc2ccccc12)C(C)C (stereo not shown) [Compound 104]
4 | 4.00 to 6.00 | CCC(C=O)NC(=O)c1cc(OCc2ccc(Cl)c(Cl)c2)ccc1NC(=O)C(NC(=O)C(NC(=O)c1cnccn1)C(C)C)C(C)C (stereo not shown) [Compound 107]
